The supplement of paper PMC10307832

Legend:
Test in all cases: relative viability (nuclei count vs DMSO), 5 days (fraction); higher = more cells survive
EMC-BAC-2 = tested on: EMC-BAC-2
How it was run: (§1)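 Relative viability was taken as the ratio of nuclei in treated wells to nuclei in vehicle wells. Lung cancer cell lines in 1536-well plates received compounds by pin tool one day after seeding, either one drug alone or a fixed anchor-drug dose plus five library-drug doses (not always all listed) in √10 steps. Nuclei were counted on 4× images after 5 days of treatment, and values are medians of duplicate plates.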

EPLC-272H = tested on: EPLC-272H
How it was run: as §1

H3255 = tested on: H3255
How it was run: as §1

HOP-62 = tested on: HOP-62
How it was run: as §1

LCLC-97TM1 = tested on: LCLC-97TM1
How it was run: as §1

LXF-289 = tested on: LXF-289
How it was run: as §1

NCI-H1734 = tested on: NCI-H1734
How it was run: as §1

NCI-H1915 = tested on: NCI-H1915
How it was run: as §1

NCI-H1993 = tested on: NCI-H1993
How it was run: as §1

NCI-H2009 = tested on: NCI-H2009
How it was run: as §1

NCI-H2023 = tested on: NCI-H2023
How it was run: as §1

NCI-H2085 = tested on: NCI-H2085
How it was run: as §1

NCI-H2126 = tested on: NCI-H2126
How it was run: as §1

NCI-H2347 = tested on: NCI-H2347
How it was run: as §1

NCI-H322M = tested on: NCI-H322M
How it was run: as §1

NCI-H647 = tested on: NCI-H647
How it was run: as §1

NCI-H661 = tested on: NCI-H661
How it was run: as §1

NCI-H727 = tested on: NCI-H727
How it was run: as §1

PC-14 = tested on: PC-14
How it was run: as §1

SK-LU-1 = tested on: SK-LU-1
How it was run: as §1

SW 1573 = tested on: SW 1573
How it was run: as §1

Compound: CCN(CC)CCCCNc1ncc2cc(-c3cc(OC)cc(OC)c3)c(NC(=O)NC(C)(C)C)nc2n1 + CC(=O)Nc1cccc(-n2c(=O)n(C3CC3)c(=O)c3c(Nc4ccc(I)cc4F)n(C)c(=O)c(C)c32)c1 [Trametinib] (partner 0.02 µM)
- relative viability (EMC-BAC-2; first compound 0.03162 µM): 0.986
- relative viability (EMC-BAC-2; first compound 0.1 µM): 0.917
- relative viability (EMC-BAC-2; first compound 0.3162 µM): 0.847
- relative viability (EMC-BAC-2; first compound 1 µM): 0.83
- relative viability (EPLC-272H; first compound 0.01 µM): 0.263
- relative viability (EPLC-272H; first compound 0.1 µM): 0.277
- relative viability (EPLC-272H; first compound 0.3162 µM): 0.281
- relative viability (EPLC-272H; first compound 1 µM): 0.215
- relative viability (H3255; first compound 0.01 µM): 0.627
- relative viability (H3255; first compound 0.1 µM): 0.596
- relative viability (H3255; first compound 0.3162 µM): 0.711
- relative viability (H3255; first compound 1 µM): 0.566
- relative viability (HOP-62; first compound 0.01 µM): 0.452
- relative viability (HOP-62; first compound 0.03162 µM): 0.395
- relative viability (HOP-62; first compound 0.1 µM): 0.398
- relative viability (HOP-62; first compound 0.3162 µM): 0.37
- relative viability (HOP-62; first compound 1 µM): 0.339
- relative viability (LCLC-97TM1; first compound 0.01 µM): 0.161
- relative viability (LCLC-97TM1; first compound 0.03162 µM): 0.189
- relative viability (LCLC-97TM1; first compound 0.1 µM): 0.216
- relative viability (LCLC-97TM1; first compound 0.3162 µM): 0.168
- relative viability (LCLC-97TM1; first compound 1 µM): 0.185
- relative viability (LXF-289; first compound 0.01 µM): 0.704
- relative viability (LXF-289; first compound 0.03162 µM): 0.703
- relative viability (LXF-289; first compound 0.1 µM): 0.637
- relative viability (LXF-289; first compound 0.3162 µM): 0.759
- relative viability (LXF-289; first compound 1 µM): 0.644
- relative viability (NCI-H1734; first compound 0.01 µM): 0.665
- relative viability (NCI-H1734; first compound 0.03162 µM): 0.678
- relative viability (NCI-H1734; first compound 0.1 µM): 0.627
- relative viability (NCI-H1734; first compound 0.3162 µM): 0.581
- relative viability (NCI-H1734; first compound 1 µM): 0.407
- relative viability (NCI-H1915; first compound 0.01 µM): 0.303
- relative viability (NCI-H1915; first compound 0.03162 µM): 0.294
- relative viability (NCI-H1915; first compound 0.1 µM): 0.33
- relative viability (NCI-H1915; first compound 0.3162 µM): 0.249
- relative viability (NCI-H1915; first compound 1 µM): 0.233
- relative viability (NCI-H1993; first compound 0.01 µM): 0.567
- relative viability (NCI-H1993; first compound 0.03162 µM): 0.5
- relative viability (NCI-H1993; first compound 0.1 µM): 0.53
- relative viability (NCI-H1993; first compound 0.3162 µM): 0.557
- relative viability (NCI-H1993; first compound 1 µM): 0.0258
- relative viability (NCI-H2009; first compound 0.01 µM): 0.264
- relative viability (NCI-H2009; first compound 0.03162 µM): 0.244
- relative viability (NCI-H2009; first compound 0.1 µM): 0.266
- relative viability (NCI-H2009; first compound 0.3162 µM): 0.254
- relative viability (NCI-H2009; first compound 1 µM): 0.192
- relative viability (NCI-H2023; first compound 0.01 µM): 0.662
- relative viability (NCI-H2023; first compound 0.03162 µM): 0.551
- relative viability (NCI-H2023; first compound 0.1 µM): 0.624
- relative viability (NCI-H2023; first compound 0.3162 µM): 0.629
- relative viability (NCI-H2023; first compound 1 µM): 0.447
- relative viability (NCI-H2085; first compound 0.01 µM): 0.521
- relative viability (NCI-H2085; first compound 0.03162 µM): 0.682
- relative viability (NCI-H2085; first compound 0.1 µM): 0.496
- relative viability (NCI-H2085; first compound 0.3162 µM): 0.469
- relative viability (NCI-H2085; first compound 1 µM): 0.547
- relative viability (NCI-H2126; first compound 0.01 µM): 0.533
- relative viability (NCI-H2126; first compound 0.03162 µM): 0.578
- relative viability (NCI-H2126; first compound 0.1 µM): 0.58
- relative viability (NCI-H2126; first compound 0.3162 µM): 0.58
- relative viability (NCI-H2126; first compound 1 µM): 0.578
- relative viability (NCI-H2347; first compound 0.01 µM): 0.253
- relative viability (NCI-H2347; first compound 0.03162 µM): 0.261
- relative viability (NCI-H2347; first compound 0.1 µM): 0.293
- relative viability (NCI-H2347; first compound 0.3162 µM): 0.367
- relative viability (NCI-H2347; first compound 1 µM): 0.321
- relative viability (NCI-H322M; first compound 0.01 µM): 0.514
- relative viability (NCI-H322M; first compound 0.03162 µM): 0.49
- relative viability (NCI-H322M; first compound 0.1 µM): 0.436
- relative viability (NCI-H322M; first compound 0.3162 µM): 0.339
- relative viability (NCI-H322M; first compound 1 µM): 0.488
- relative viability (NCI-H647; first compound 0.01 µM): 0.382
- relative viability (NCI-H647; first compound 0.03162 µM): 0.517
- relative viability (NCI-H647; first compound 0.1 µM): 0.512
- relative viability (NCI-H647; first compound 0.3162 µM): 0.456
- relative viability (NCI-H647; first compound 1 µM): 0.267
- relative viability (NCI-H661; first compound 0.01 µM): 0.592
- relative viability (NCI-H661; first compound 0.03162 µM): 0.589
- relative viability (NCI-H661; first compound 0.1 µM): 0.569
- relative viability (NCI-H661; first compound 0.3162 µM): 0.563
- relative viability (NCI-H661; first compound 1 µM): 0.473
- relative viability (NCI-H727; first compound 0.01 µM): 0.387
- relative viability (NCI-H727; first compound 0.03162 µM): 0.412
- relative viability (NCI-H727; first compound 0.1 µM): 0.369
- relative viability (NCI-H727; first compound 0.3162 µM): 0.362
- relative viability (NCI-H727; first compound 1 µM): 0.362
- relative viability (PC-14; first compound 0.01 µM): 0.956
- relative viability (PC-14; first compound 0.03162 µM): 0.836
- relative viability (PC-14; first compound 0.1 µM): 1.16
- relative viability (PC-14; first compound 0.3162 µM): 0.759
- relative viability (PC-14; first compound 1 µM): 0.591
- relative viability (SK-LU-1; first compound 0.01 µM): 0.491
- relative viability (SK-LU-1; first compound 0.03162 µM): 0.444
- relative viability (SK-LU-1; first compound 0.1 µM): 0.434
- relative viability (SK-LU-1; first compound 0.3162 µM): 0.409
- relative viability (SK-LU-1; first compound 1 µM): 0.333
- relative viability (SW 1573; first compound 0.01 µM): 0.455
- relative viability (SW 1573; first compound 0.03162 µM): 0.539
- relative viability (SW 1573; first compound 0.1 µM): 0.605
- relative viability (SW 1573; first compound 0.3162 µM): 0.516
- relative viability (SW 1573; first compound 1 µM): 0.433
